Where a chain is given by its changes, count along the chain named. Names may count otherwise. Read-outs that look alike come from different tables or passages of the source. Blank lines part the entries; values can stand above or below the molecule they belong to.
Key:
[1] = biological target: T1, M2/M1 (hRRM2 and hRRM1 reconstituted RNR) (Homo sapiens, UniProt P31350); experiment: In vitro RNR activity assay with reconstituted hRRM2/hRRM1 ([3H]CDP reduction); type: biochemical; settings: read-out: In vitro RR activity (IC50 ± sd) M2/M1
T1 construct: 6xHis; made in house
T1 sequence (P31350 1-389): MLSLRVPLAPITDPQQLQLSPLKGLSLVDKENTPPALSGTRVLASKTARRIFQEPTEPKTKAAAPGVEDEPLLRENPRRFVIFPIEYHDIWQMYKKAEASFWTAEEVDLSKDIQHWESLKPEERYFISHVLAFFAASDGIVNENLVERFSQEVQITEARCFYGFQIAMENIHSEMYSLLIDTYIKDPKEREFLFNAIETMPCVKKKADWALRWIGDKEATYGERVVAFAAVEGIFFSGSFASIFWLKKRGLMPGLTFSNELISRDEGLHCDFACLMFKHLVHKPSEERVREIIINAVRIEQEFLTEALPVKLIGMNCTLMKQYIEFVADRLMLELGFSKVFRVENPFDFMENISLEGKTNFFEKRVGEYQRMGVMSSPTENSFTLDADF
Experimental: (§1) To reconstitute an active RNR, three 6′His-tag human RNR subunit proteins (hRRM2, p53R2, and hRRM1) were prokaryotically expressed, purified using Ni-resin affinity chromatography, and stored in 50 mM Tris-HCl, pH 7.4, 100 mM KCl at −70° C. according to standard techniques. The purified proteins were subjected to SDS-PAGE analysis. […] To reconstitute RNR, 1 μM of hRRM2 or p53R2 protein was incubated with 0.5 μM hRRM1 protein in multiple-well plates. The reconstitute RNR was tested for RNR activity according to standard techniques.
(§2) Each compound of various concentration was mixed with the purified hRRM2 and hRRM1, or p53R2 and hRRM1 at room temperature for 30 minutes. An enzymatic reaction buffer was then added to the mixture to reach a final volume of 100 μl and incubated at 37° C. for 30 minutes. The reaction buffer contained […] [^3H] CDP, 50 mM HEPES pH 7.2,6 mM DTT, 4 mM MgOAC, 2 mM ATP, 0.05 mM CDP, 100 mM KCl, and 0.24 mM NADPH. […] FeCl3 could be added to the buffer as an iron source. After dephosphorylation, the supernatant of each reaction mixture was analyzed by an HPLC-connected radioactivity detector. IC50 values were calculated by the non-linear regression equations: f (x)=(a-d)/[1+(x/c)^b]+d.

[2] = biological target: T2, p53R2/M1 (p53R2 and hRRM1 reconstituted RNR) (Homo sapiens, UniProt Q7LG56); experiment: In vitro RNR activity assay with reconstituted p53R2/hRRM1 ([3H]CDP reduction); type: biochemical; settings: read-out: In vitro RR activity (IC50 ± sd) p53R2/M1
T2 construct: 6xHis; made in house
T2 sequence (Q7LG56 1-351): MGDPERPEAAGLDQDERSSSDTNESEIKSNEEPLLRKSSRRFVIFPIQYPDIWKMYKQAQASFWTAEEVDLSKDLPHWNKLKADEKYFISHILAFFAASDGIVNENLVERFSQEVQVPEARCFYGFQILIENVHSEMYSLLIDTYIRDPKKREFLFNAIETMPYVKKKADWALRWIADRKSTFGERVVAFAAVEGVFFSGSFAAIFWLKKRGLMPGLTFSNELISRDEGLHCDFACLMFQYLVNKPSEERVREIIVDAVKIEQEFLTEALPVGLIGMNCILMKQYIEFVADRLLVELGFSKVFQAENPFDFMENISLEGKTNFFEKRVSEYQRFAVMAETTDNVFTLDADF
Experimental: as §1, §2

[3] = tested on: T3, RNR containing hRRM2 or p53R2; experiment: In vitro RNR activity assay, both reconstituted RNRs compared (average, selective index, comparison in words); type: biochemical, human; settings: for IC50: average of M2/M1 and p53R2/M1, read-out: In vitro RR activity (IC50) Average
T3 construct: In vitro RR activity (IC50) Average; other: compound in 1% DMSO; average of M2/M1 and p53R2/M1; other: compound in 2.5% DMSO; other: compound in dH2O + FeCl3; other: compound in dH2O; Inhi; fused on or other part: 6xHis tag on each subunit
Experimental: as §1, §2
The above-described four SB-HSCs were tested for their inhibitory potency and subunit-selectivity by the in vitro RNR assay in the same manner descried above. The dose-dependent inhibition curves were found.

[4] = tested on: tyrosyl radicals of both RNR small subunits (hRRM2, p53R2); experiment: EPR spectroscopy of tyrosyl radical after incubation with compound; type: biochemical, human; settings: protein incubated with compound at room temperature for 30 minutes; EPR at 20 K
Experimental: Electron paramagnetic resonance (EPR) spectroscopy was then conducted. Prior to EPR, protein samples were incubated with each of the above-described compounds at room temperature for 30 minutes. EPR parameters were set as following: T=20 K, microwave frequency=9.376 GHz, microwave power=0.5 mW, modulation amplitude 4 gauss, modulation frequency 100 KHz. […] The EPR analysis was conduced in the presence of irons and the reductants.

human RNR = biological target: T4, human RNR (Homo sapiens, UniProt P23921); experiment: C-terminal RRM2 peptide added to the enzyme in vitro; type: biochemical; settings: added in vitro at a ratio of 10:1 (peptide:enzyme)
T4 sequence (P23921 1-792): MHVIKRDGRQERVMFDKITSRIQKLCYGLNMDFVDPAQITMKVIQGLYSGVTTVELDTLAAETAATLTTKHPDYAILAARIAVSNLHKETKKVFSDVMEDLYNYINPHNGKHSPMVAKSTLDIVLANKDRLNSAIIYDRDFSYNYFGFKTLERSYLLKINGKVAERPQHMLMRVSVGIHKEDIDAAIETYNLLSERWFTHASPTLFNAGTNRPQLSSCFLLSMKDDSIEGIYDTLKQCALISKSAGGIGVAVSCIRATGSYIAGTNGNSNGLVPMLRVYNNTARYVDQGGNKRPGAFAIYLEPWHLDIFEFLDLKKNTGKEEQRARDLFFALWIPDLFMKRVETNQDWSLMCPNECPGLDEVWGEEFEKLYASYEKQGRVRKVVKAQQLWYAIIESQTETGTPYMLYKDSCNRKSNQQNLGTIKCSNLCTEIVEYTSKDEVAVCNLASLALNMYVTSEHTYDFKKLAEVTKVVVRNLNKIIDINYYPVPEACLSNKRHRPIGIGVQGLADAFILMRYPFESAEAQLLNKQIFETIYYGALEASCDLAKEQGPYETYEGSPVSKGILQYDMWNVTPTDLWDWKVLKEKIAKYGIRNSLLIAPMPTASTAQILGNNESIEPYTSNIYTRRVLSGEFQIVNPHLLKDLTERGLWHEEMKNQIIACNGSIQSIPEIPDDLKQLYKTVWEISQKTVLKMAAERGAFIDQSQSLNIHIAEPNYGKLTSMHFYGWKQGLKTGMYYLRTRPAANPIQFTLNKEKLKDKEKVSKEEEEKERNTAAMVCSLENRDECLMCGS
Excerpt: Also within the scope of this invention is a pharmaceutical composition that contains (1) an active agent, e.g., one of the above-descried antibodies, RNR mutant subunits, RNAi agents, or compounds identified to be RNR inhibitors; and (2) a pharmaceutically acceptable carrier and. Other active agents that can be used include an antisense oligonucleotide and a peptide or polypeptide containing an amino acid sequence at the C-terminus of RRM2. […] It was further observed that a truncated form of the M2 subunit, lacking these 7 amino acids at the C-terminus, fails to form a complex with the corresponding large subunit M1. […] Such peptides or polypeptides can be generated and used according to the methods described above or any other methods well known in the art. The efficacy of the pharmaceutical composition for treating a cell proliferation-associated disorder can be preliminarily evaluated in vitro. For in vivo studies, the composition can be injected into an animal and its therapeutic effects are then accessed.

p53R2/hRRM1 = biological target: T5, p53R2/hRRM1 (Homo sapiens, UniProt Q7LG56, Y124W); experiment: RNR activity of mutated p53R2 proteins with hRRM1 (modified [3H]CDP reduction assay); type: biochemical
T5 construct: 6xHis; made in house; host or cells: E. coli BL21(DE3), pET-p53R2 template
T5 sequence (Q7LG56 1-351 Y124W): T2 sequence (Q7LG56 1-351) with Y124W
Experimental: The activities of hRRM2/hRRM1 and p53R2/hRRM1 were measured using a modified [^3H] CDP reduction assay. The reaction mixture contained 0.125 μM [^3H] CDP (0.3 μCi), 50 mM of HEPES (pH 7.2), 6 mM DTT, 4 mM MgOAC, 2 mM ATP, 0.05 mM CDP, 100 mM KCl, 0.24 mM NADPH. The enzyme activity was measured in the presence of 0.5 μM of M1 protein and 1 μM of hRRM2 or p53R2 proteins with a total sample volume of 100 μl. After incubation at 37° C. for 15-30 minutes and dephosphorylation with phosphodiesterase, the supernatant was analyzed by HPLC using a C-18 reversed phase column to separate [^3H] cytidine and [^3H] deoxycytidine. Radioactivity of the HPLC aliquots was measured with a β-RAM-2B Flow-through radioisotope beta/gamma detector (IN/US Systems, Tampa, Fla.). The enzyme activity was measured as relative activity of dCDP/(CDP+dCDP)% (i. e., the percentage of dCDP of all ribonucleoside diphosphates and deoxyribonucleoside diphosphates). Results were normalized against those of wild type proteins, which were considered having 100% conversion of CDP to dCDP. Each value is the average of two to three determinations with deviations <0.3%.

IC50 ([1]; compound in 1% DMSO): 148 ± 7.34 µM
IC50 ([1]; compound in 2.5% DMSO): 155 ± 6.59 µM
IC50 ([1]; compound in dH2O + FeCl3): 556 ± 24.1 µM
IC50 ([1]; compound in dH2O): 165 ± 7.95 µM
IC50 ([2]; compound in 1% DMSO): 159 ± 6.82 µM
IC50 ([2]; compound in 2.5% DMSO): 146 ± 6.06 µM
IC50 ([2]; compound in dH2O + FeCl3): 1990 ± 71.2 µM
IC50 ([2]; compound in dH2O): 190 ± 6.43 µM
IC50 ([3]; compound in 1% DMSO): 153 µM
IC50 ([3]; compound in 2.5% DMSO): 150 µM
IC50 ([3]; compound in dH2O + FeCl3): 1270 µM
IC50 ([3]; compound in dH2O): 178 µM
Molecule: NC(=O)NO [HU, Hydroxyurea]
Inhibition of reconstituted RNR activity (in words) [3]: significantly inhibited the activity of RNR containing hRRM2 or p53R2
Quenching of tyrosyl radical EPR signal [4]: quenched the tyrosyl radicals of both RNR small subunits

Molecule: FTLDADF [7-amino acid peptide (FTLDADF) at the C-terminus of RRM2]
Suppression of human RNR activity (human RNR): dramatically suppress the human RNR activity

B1: Y124W-p53R2: p53R2 mutant with Tyr124 replaced by tryptophan (SEQ ID NO: 19) (protein, listed as Homo sapiens)
chain: T2 sequence (Q7LG56 1-351) with Y124W
Enzyme activity retained, fraction of the wild type protein (p53R2/hRRM1): 1/3
